From ChEMBL document CHEMBL1909294, “Translating clinical findings into knowledge in drug safety evaluation--drug induced liver injury prediction system (DILIps)” (PLoS Comput Biol, 2011)

Legend:
Hepatotoxicity [1] = system: Hepatotoxicity;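 as to HepSE bilirubinemia: bilirubinemia hepatic side effect score drawn from the DILIps training data, a prediction system for drug-induced liver injury; call rule not given here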;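 as to HepSE cholecystitis: Cholecystitis-related hepatic side effect score drawn from the DILIps (drug-induced liver injury prediction) training data set; call rule not given here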;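 as to HepSE cholelithiasis: hepatic side effect score for cholelithiasis, drawn from the DILIps training data for predicting drug-induced liver injury; call rule not given here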;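 as to HepSE cirrhosis: cirrhosis hepatic side effect score taken from the DILIps (drug-induced liver injury prediction) training set; call rule not given here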;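 as to HepSE elevated liver function tests: hepatic side effect score for raised liver function tests, as recorded in the DILIps training set used for predicting drug-induced liver injury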; as to HepSE hepatic failure: call rule not given here;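 as to HepSE hepatomegaly: hepatic side effect score for hepatomegaly, taken from the training set of the DILIps drug-induced liver injury prediction system; call rule not given here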
Hepatotoxicity [2] = system: Hepatotoxicity; remark: listed apart in the source;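 as to HepSE bilirubinemia: bilirubinemia hepatic side effect score drawn from the DILIps training data, a prediction system for drug-induced liver injury; call rule not given here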;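 as to HepSE cholecystitis: Cholecystitis-related hepatic side effect score drawn from the DILIps (drug-induced liver injury prediction) training data set; call rule not given here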;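 as to HepSE cholelithiasis: hepatic side effect score for cholelithiasis, drawn from the DILIps training data for predicting drug-induced liver injury; call rule not given here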;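 as to HepSE cirrhosis: cirrhosis hepatic side effect score taken from the DILIps (drug-induced liver injury prediction) training set; call rule not given here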;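 as to HepSE elevated liver function tests: hepatic side effect score for raised liver function tests, as recorded in the DILIps training set used for predicting drug-induced liver injury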; as to HepSE hepatic failure: call rule not given here
Hepatotoxicity [3] = system: Hepatotoxicity; remark: listed apart in the source;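 as to HepSE bilirubinemia: bilirubinemia hepatic side effect score drawn from the DILIps training data, a prediction system for drug-induced liver injury; call rule not given here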;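 as to HepSE cholecystitis: Cholecystitis-related hepatic side effect score drawn from the DILIps (drug-induced liver injury prediction) training data set; call rule not given here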;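 as to HepSE cholelithiasis: hepatic side effect score for cholelithiasis, drawn from the DILIps training data for predicting drug-induced liver injury; call rule not given here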;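 as to HepSE cirrhosis: cirrhosis hepatic side effect score taken from the DILIps (drug-induced liver injury prediction) training set; call rule not given here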;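 as to HepSE elevated liver function tests: hepatic side effect score for raised liver function tests, as recorded in the DILIps training set used for predicting drug-induced liver injury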; as to HepSE hepatic failure: call rule not given here
Hepatotoxicity [4] = system: Hepatotoxicity; remark: listed apart in the source;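 as to HepSE bilirubinemia: bilirubinemia hepatic side effect score drawn from the DILIps training data, a prediction system for drug-induced liver injury; call rule not given here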;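 as to HepSE cholecystitis: Cholecystitis-related hepatic side effect score drawn from the DILIps (drug-induced liver injury prediction) training data set; call rule not given here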;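 as to HepSE cholelithiasis: hepatic side effect score for cholelithiasis, drawn from the DILIps training data for predicting drug-induced liver injury; call rule not given here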;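 as to HepSE cirrhosis: cirrhosis hepatic side effect score taken from the DILIps (drug-induced liver injury prediction) training set; call rule not given here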;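 as to HepSE elevated liver function tests: hepatic side effect score for raised liver function tests, as recorded in the DILIps training set used for predicting drug-induced liver injury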; as to HepSE hepatic failure: call rule not given here
Hepatotoxicity [5] = system: Hepatotoxicity; remark: listed apart in the source; as to HepSE hepatic failure: call rule not given here
Hepatotoxicity [6] = system: Hepatotoxicity; remark: listed apart in the source; as to HepSE hepatic failure: call rule not given here
Hepatotoxicity [7] = system: Hepatotoxicity; remark: listed apart in the source
Hepatotoxicity [8] = system: Hepatotoxicity; remark: listed apart in the source
Hepatotoxicity [9] = system: Hepatotoxicity; remark: listed apart in the source
Hepatotoxicity [10] = system: Hepatotoxicity; remark: listed apart in the source
Hepatotoxicity [11] = system: Hepatotoxicity; remark: listed apart in the source
Hepatotoxicity [12] = system: Hepatotoxicity; remark: listed apart in the source
Hepatotoxicity [13] = system: Hepatotoxicity; remark: listed apart in the source
Hepatotoxicity [14] = system: Hepatotoxicity; remark: listed apart in the source

## GADOTERIDOL
Hepatotoxicity [1]
  HepSE_bilirubinemia: 0
Hepatotoxicity [2]
  HepSE_cholecystitis: 0
Hepatotoxicity [3]
  HepSE_cholelithiasis: 0
Hepatotoxicity [4]
  HepSE_cirrhosis: 0
Hepatotoxicity [5]
  HepSE_elevated liver function tests: 0
Hepatotoxicity [6]
  HepSE_hepatic failure: 0
Hepatotoxicity [7]
  HepSE_hepatic necrosis: 0
Hepatotoxicity [8]
  HepSE_hepatitis: 0
Hepatotoxicity [9]
  HepSE_hepatomegaly: 0
Hepatotoxicity [10]
  HepSE_jaundice: 0
Hepatotoxicity [11]
  HepSE_liver disease: 0
Hepatotoxicity [12]
  HepSE_liver fatty: 0
Hepatotoxicity [13]
  HepSE_liver function tests abnormal: 0
Hepatotoxicity [14]
  HepSE_Combined Scores: 0

## GENTAMICIN
Hepatotoxicity [1]
  HepSE_bilirubinemia: 0
Hepatotoxicity [2]
  HepSE_cholecystitis: 0
Hepatotoxicity [3]
  HepSE_cholelithiasis: 0
Hepatotoxicity [4]
  HepSE_cirrhosis: 0
Hepatotoxicity [5]
  HepSE_elevated liver function tests: 0
Hepatotoxicity [6]
  HepSE_hepatic failure: 0
Hepatotoxicity [7]
  HepSE_hepatic necrosis: 0
Hepatotoxicity [8]
  HepSE_hepatitis: 0
Hepatotoxicity [9]
  HepSE_hepatomegaly: 1
Hepatotoxicity [10]
  HepSE_jaundice: 0
Hepatotoxicity [11]
  HepSE_liver disease: 0
Hepatotoxicity [12]
  HepSE_liver fatty: 0
Hepatotoxicity [13]
  HepSE_liver function tests abnormal: 0
Hepatotoxicity [14]
  HepSE_Combined Scores: 1

## GLATIRAMER ACETATE
Hepatotoxicity [1]
  HepSE_bilirubinemia: 0
Hepatotoxicity [2]
  HepSE_cholecystitis: 1
Hepatotoxicity [3]
  HepSE_cholelithiasis: 1
Hepatotoxicity [4]
  HepSE_cirrhosis: 1
Hepatotoxicity [5]
  HepSE_elevated liver function tests: 0
Hepatotoxicity [6]
  HepSE_hepatic failure: 0
Hepatotoxicity [7]
  HepSE_hepatic necrosis: 0
Hepatotoxicity [8]
  HepSE_hepatitis: 1
Hepatotoxicity [9]
  HepSE_hepatomegaly: 1
Hepatotoxicity [10]
  HepSE_jaundice: 0
Hepatotoxicity [11]
  HepSE_liver disease: 0
Hepatotoxicity [12]
  HepSE_liver fatty: 0
Hepatotoxicity [13]
  HepSE_liver function tests abnormal: 0
Hepatotoxicity [14]
  HepSE_Combined Scores: 5

## GOLD SODIUM THIOMALATE
Hepatotoxicity [1]
  HepSE_bilirubinemia: 0
Hepatotoxicity [2]
  HepSE_cholecystitis: 0
Hepatotoxicity [3]
  HepSE_cholelithiasis: 0
Hepatotoxicity [4]
  HepSE_cirrhosis: 0
Hepatotoxicity [5]
  HepSE_elevated liver function tests: 0
Hepatotoxicity [6]
  HepSE_hepatic failure: 1
Hepatotoxicity [7]
  HepSE_hepatic necrosis: 0
Hepatotoxicity [8]
  HepSE_hepatitis: 0
Hepatotoxicity [9]
  HepSE_hepatomegaly: 0
Hepatotoxicity [10]
  HepSE_jaundice: 1
Hepatotoxicity [11]
  HepSE_liver disease: 0
Hepatotoxicity [12]
  HepSE_liver fatty: 0
Hepatotoxicity [13]
  HepSE_liver function tests abnormal: 0
Hepatotoxicity [14]
  HepSE_Combined Scores: 2

## HEPARIN
Hepatotoxicity [1]
  HepSE_bilirubinemia: 0
Hepatotoxicity [2]
  HepSE_cholecystitis: 0
Hepatotoxicity [3]
  HepSE_cholelithiasis: 0
Hepatotoxicity [4]
  HepSE_cirrhosis: 0
Hepatotoxicity [5]
  HepSE_elevated liver function tests: 0
Hepatotoxicity [6]
  HepSE_hepatic failure: 0
Hepatotoxicity [7]
  HepSE_hepatic necrosis: 0
Hepatotoxicity [8]
  HepSE_hepatitis: 0
Hepatotoxicity [9]
  HepSE_hepatomegaly: 0
Hepatotoxicity [10]
  HepSE_jaundice: 0
Hepatotoxicity [11]
  HepSE_liver disease: 1
Hepatotoxicity [12]
  HepSE_liver fatty: 0
Hepatotoxicity [13]
  HepSE_liver function tests abnormal: 0
Hepatotoxicity [14]
  HepSE_Combined Scores: 1

## HYDROXOCOBALAMIN
Hepatotoxicity [1]
  HepSE_bilirubinemia: 0
Hepatotoxicity [2]
  HepSE_cholecystitis: 0
Hepatotoxicity [3]
  HepSE_cholelithiasis: 0
Hepatotoxicity [4]
  HepSE_cirrhosis: 0
Hepatotoxicity [5]
  HepSE_elevated liver function tests: 0
Hepatotoxicity [6]
  HepSE_hepatic failure: 0
Hepatotoxicity [7]
  HepSE_hepatic necrosis: 0
Hepatotoxicity [8]
  HepSE_hepatitis: 0
Hepatotoxicity [9]
  HepSE_hepatomegaly: 0
Hepatotoxicity [10]
  HepSE_jaundice: 0
Hepatotoxicity [11]
  HepSE_liver disease: 0
Hepatotoxicity [12]
  HepSE_liver fatty: 0
Hepatotoxicity [13]
  HepSE_liver function tests abnormal: 0
Hepatotoxicity [14]
  HepSE_Combined Scores: 0

## IVERMECTIN
Hepatotoxicity [1]
  HepSE_bilirubinemia: 0
Hepatotoxicity [2]
  HepSE_cholecystitis: 0
Hepatotoxicity [3]
  HepSE_cholelithiasis: 0
Hepatotoxicity [4]
  HepSE_cirrhosis: 0
Hepatotoxicity [5]
  HepSE_elevated liver function tests: 0
Hepatotoxicity [6]
  HepSE_hepatic failure: 0
Hepatotoxicity [7]
  HepSE_hepatic necrosis: 0
Hepatotoxicity [8]
  HepSE_hepatitis: 0
Hepatotoxicity [9]
  HepSE_hepatomegaly: 0
Hepatotoxicity [10]
  HepSE_jaundice: 0
Hepatotoxicity [11]
  HepSE_liver disease: 0
Hepatotoxicity [12]
  HepSE_liver fatty: 0
Hepatotoxicity [13]
  HepSE_liver function tests abnormal: 0
Hepatotoxicity [14]
  HepSE_Combined Scores: 0

## MANGAFODIPIR
Hepatotoxicity [1]
  HepSE_bilirubinemia: 0
Hepatotoxicity [2]
  HepSE_cholecystitis: 0
Hepatotoxicity [3]
  HepSE_cholelithiasis: 0
Hepatotoxicity [4]
  HepSE_cirrhosis: 0
Hepatotoxicity [5]
  HepSE_elevated liver function tests: 0
Hepatotoxicity [6]
  HepSE_hepatic failure: 0
Hepatotoxicity [7]
  HepSE_hepatic necrosis: 0
Hepatotoxicity [8]
  HepSE_hepatitis: 0
Hepatotoxicity [9]
  HepSE_hepatomegaly: 0
Hepatotoxicity [10]
  HepSE_jaundice: 0
Hepatotoxicity [11]
  HepSE_liver disease: 0
Hepatotoxicity [12]
  HepSE_liver fatty: 0
Hepatotoxicity [13]
  HepSE_liver function tests abnormal: 0
Hepatotoxicity [14]
  HepSE_Combined Scores: 0

## NITROPRUSSIDE
Hepatotoxicity [1]
  HepSE_bilirubinemia: 0
Hepatotoxicity [2]
  HepSE_cholecystitis: 0
Hepatotoxicity [3]
  HepSE_cholelithiasis: 0
Hepatotoxicity [4]
  HepSE_cirrhosis: 0
Hepatotoxicity [5]
  HepSE_elevated liver function tests: 0
Hepatotoxicity [6]
  HepSE_hepatic failure: 0
Hepatotoxicity [7]
  HepSE_hepatic necrosis: 0
Hepatotoxicity [8]
  HepSE_hepatitis: 0
Hepatotoxicity [9]
  HepSE_hepatomegaly: 0
Hepatotoxicity [10]
  HepSE_jaundice: 0
Hepatotoxicity [11]
  HepSE_liver disease: 0
Hepatotoxicity [12]
  HepSE_liver fatty: 0
Hepatotoxicity [13]
  HepSE_liver function tests abnormal: 0
Hepatotoxicity [14]
  HepSE_Combined Scores: 0

## NYSTATIN
Hepatotoxicity [1]
  HepSE_bilirubinemia: 0
Hepatotoxicity [2]
  HepSE_cholecystitis: 0
Hepatotoxicity [3]
  HepSE_cholelithiasis: 0
Hepatotoxicity [4]
  HepSE_cirrhosis: 0
Hepatotoxicity [5]
  HepSE_elevated liver function tests: 0
Hepatotoxicity [6]
  HepSE_hepatic failure: 0
Hepatotoxicity [7]
  HepSE_hepatic necrosis: 0
Hepatotoxicity [8]
  HepSE_hepatitis: 0
Hepatotoxicity [9]
  HepSE_hepatomegaly: 0
Hepatotoxicity [10]
  HepSE_jaundice: 0
Hepatotoxicity [11]
  HepSE_liver disease: 0
Hepatotoxicity [12]
  HepSE_liver fatty: 0
Hepatotoxicity [13]
  HepSE_liver function tests abnormal: 0
Hepatotoxicity [14]
  HepSE_Combined Scores: 0

## OXALIPLATIN
Hepatotoxicity [1]
  HepSE_bilirubinemia: 1
Hepatotoxicity [2]
  HepSE_cholecystitis: 0
Hepatotoxicity [3]
  HepSE_cholelithiasis: 0
Hepatotoxicity [4]
  HepSE_cirrhosis: 0
Hepatotoxicity [5]
  HepSE_elevated liver function tests: 0
Hepatotoxicity [6]
  HepSE_hepatic failure: 0
Hepatotoxicity [7]
  HepSE_hepatic necrosis: 0
Hepatotoxicity [8]
  HepSE_hepatitis: 0
Hepatotoxicity [9]
  HepSE_hepatomegaly: 0
Hepatotoxicity [10]
  HepSE_jaundice: 0
Hepatotoxicity [11]
  HepSE_liver disease: 1
Hepatotoxicity [12]
  HepSE_liver fatty: 0
Hepatotoxicity [13]
  HepSE_liver function tests abnormal: 0
Hepatotoxicity [14]
  HepSE_Combined Scores: 2

## PORFIMER SODIUM
Hepatotoxicity [1]
  HepSE_bilirubinemia: 0
Hepatotoxicity [2]
  HepSE_cholecystitis: 0
Hepatotoxicity [3]
  HepSE_cholelithiasis: 0
Hepatotoxicity [4]
  HepSE_cirrhosis: 0
Hepatotoxicity [5]
  HepSE_elevated liver function tests: 0
Hepatotoxicity [6]
  HepSE_hepatic failure: 0
Hepatotoxicity [7]
  HepSE_hepatic necrosis: 0
Hepatotoxicity [8]
  HepSE_hepatitis: 0
Hepatotoxicity [9]
  HepSE_hepatomegaly: 0
Hepatotoxicity [10]
  HepSE_jaundice: 1
Hepatotoxicity [11]
  HepSE_liver disease: 0
Hepatotoxicity [12]
  HepSE_liver fatty: 0
Hepatotoxicity [13]
  HepSE_liver function tests abnormal: 0
Hepatotoxicity [14]
  HepSE_Combined Scores: 1

## SEVELAMER
Hepatotoxicity [1]
  HepSE_bilirubinemia: 0
Hepatotoxicity [2]
  HepSE_cholecystitis: 0
Hepatotoxicity [3]
  HepSE_cholelithiasis: 0
Hepatotoxicity [4]
  HepSE_cirrhosis: 0
Hepatotoxicity [5]
  HepSE_elevated liver function tests: 0
Hepatotoxicity [6]
  HepSE_hepatic failure: 0
Hepatotoxicity [7]
  HepSE_hepatic necrosis: 0
Hepatotoxicity [8]
  HepSE_hepatitis: 0
Hepatotoxicity [9]
  HepSE_hepatomegaly: 0
Hepatotoxicity [10]
  HepSE_jaundice: 0
Hepatotoxicity [11]
  HepSE_liver disease: 0
Hepatotoxicity [12]
  HepSE_liver fatty: 0
Hepatotoxicity [13]
  HepSE_liver function tests abnormal: 0
Hepatotoxicity [14]
  HepSE_Combined Scores: 0

## UROFOLLITROPIN
Hepatotoxicity [1]
  HepSE_bilirubinemia: 0
Hepatotoxicity [2]
  HepSE_cholecystitis: 0
Hepatotoxicity [3]
  HepSE_cholelithiasis: 0
Hepatotoxicity [4]
  HepSE_cirrhosis: 0
Hepatotoxicity [5]
  HepSE_elevated liver function tests: 0
Hepatotoxicity [6]
  HepSE_hepatic failure: 0
Hepatotoxicity [7]
  HepSE_hepatic necrosis: 0
Hepatotoxicity [8]
  HepSE_hepatitis: 0
Hepatotoxicity [9]
  HepSE_hepatomegaly: 0
Hepatotoxicity [10]
  HepSE_jaundice: 0
Hepatotoxicity [11]
  HepSE_liver disease: 0
Hepatotoxicity [12]
  HepSE_liver fatty: 0
Hepatotoxicity [13]
  HepSE_liver function tests abnormal: 0
Hepatotoxicity [14]
  HepSE_Combined Scores: 0
